Measurements reported in US20080070987A1, “META-XYLYLENEDIAMINE VANADATE SALTS” (priority 2006, published 2008).

Tests used:
Format in all cases: in vivo, rat
[1] = system: streptozotocin-induced diabetic rats; assay: Chronic oral treatment of streptozotocin-induced diabetic rats, glycemia; conditions: for glycemia: oral, after the dosage increase to 10 μmol/kg/day; for effect on glycemia over the whole oral treatment, in words: streptozotocin (45 mg/kg) diabetic rats, daily oral administration for 17 days
Experimental: FIG. 4 is a graphical illustration of the chronic and oral treatment with hexaquis(benzylammonium) decavanadate on glycemia of diabetic rats by estreptozotocine. In FIG. 4, [G] corresponds to the blood concentration of glucose (expressed in mg/dl) measured at different days of treatment (t/d). Diabetic rats were treated with a single daily oral dose of hexaquis(benzylammonium) decavanadate (5 μmol/kg/day between day 0 and day 7 marked with an arrow, and 10 μmol/kg/day from 7 days of treatment) (black squares) or with identical dose of sodium decavanadate (black diamonds). Glycemia in non-diabetic rats is also represented in the figure (black triangles).
Diabetes was induced in rats by intravenous administration of streptozotocin, and subsequently, a hexaquis(benzylammonium) decavanadate or sodium decavanadate unique dose was administered to the rats. […] After seven days of treatment, the dose was increased at 10 μmol/kg/day which was maintained for an additional ten days. […] Thus, glycemia in sodium decavanadate treated rats was approximately 450 mg/dl and glycemia of hexaquis(benzylammonium) decavanadate treated rats was approximately 250 mg/dl.
(§1) Male Wistar rats weighting 180-220 g were purchased from Harlan (Interfauna Ibérica S.A., Spain). Diabetes was induced by a single intraperitoneal injection of a freshly prepared solution of streptozotocin (in some studies the dose was 45 mg/kg body weight and in some others 100 mg/kg body weight dissolved in 50 mM citrate buffer, pH 4.5). Only diabetic animals with glycemia above 300 mg/dl were used. The animals were housed in animal quarters at 22° C. with a 12 h light/12 h dark cycle and were fed ad libitum. All procedures used were approved by the animal ethical committee of the University of Barcelona, Spain. Male mice C57 BL/Ks bearing the db/db mutation (Jackson Laboratories, Bar Harbor, Me.) were purchased from Harlan France (Gannat, France). C57BL/6J male mice were assigned for 16 weeks to very high-fat diet containing (in kcal): 72% from fat, 28% from proteins and <1% from carbohydrates (Burcelin et al., 2002, Am. J. Physiol. Endocrinol. Metab 282: E834-E842).
(§2) Osmotic minipumps delivering B6V10 (2.5 μmol/kg body wt/day) or decavanadate (2.5 μmol/kg body wt/day) were implanted subcutaneously in diabetic rats anaesthetised by ketamine hydrochloride (95 mg/kg) and xylasine (10 mg/kg). […] Glycemia was measured on arterio-venous blood collected from the tail vessels at 09:00 am for two weeks, before the administration of vanadate. Insulin concentrations were determined before and after treatment. In another set of experiments, B6V10 was orally administered at a single dose of 5 μmol/kg/day during the first week and 10 μmol/kg/day during 2 additional weeks by gastric gavage. A control group received the corresponding decavanadate salt in the absence of benzylamine. At the end of the treatment, animals were sacrificed and the liver, fat pad, heart and lung were kept at −80° C. and the plasma at −20° C. until their use for in vitro analysis.
(§3) In glucose tolerance tests and in chronic treatments, circulating glucose concentrations were determined by a rapid glucose analyser (Accutrend® Sensor Comfort, Roche, Basel. Switzerland). Plasma insulin (IRI) concentration was determined by ELISA method using a kit obtained from Crystal Chem. Inc. (Downers Grove, Ill.). Plasma triglycerides (Biosystems, Barcelona, Spain) and NEFAS (Wako Chemicals, Neuss, Germany) were determined with standard […] methods.
Chronic in vivo efficacy of B6V10 was evaluated in streptozotocin-induced diabetic rats and in db/db mice. Streptozotocin-induced (45 mg/kg) diabetic rats were subcutaneously treated with hexaquis(benzylammonium) decavanadate (2.5 μmol/kg) (B6V10, solid squares, FIG. 8A) or with decavanadate (2.5 μmol/kg) (V10, open circles, FIG. 8A) delivered subcutaneously by osmotic minipumps implanted in the dorsal region. Diabetic rats were also sham-operated (untreated, solid diamonds, FIG. 8A). […]

[2] = system: streptozotocin-induced diabetic rats; assay: Chronic subcutaneous (osmotic minipump) treatment of streptozotocin-induced diabetic rats, glycemia; conditions: for effect on glycemia, in words: streptozotocin (45 mg/kg) diabetic rats, 2.5 μmol/kg/day subcutaneous by osmotic minipumps, about two weeks
Experimental: FIG. 3 is a graphical illustration of hexaquis(benzylammonium) decavanadate chronic treatment effect on glycemia of diabetic rats by streptozotocin. In FIG. 3, [G] corresponds to the blood concentration of glucose (expressed in mg/dl) measured at different days of treatment (t/d). Diabetic rats were treated, by mini-osmotic pumps, with buffered solution (black diamonds), with hexaquis(benzylammonium) decavanadate (2.5 μmol/kg/day) (black squares) or with identical dose of sodium decavanadate (white circles).
The effect of chronic administration of hexaquis(benzylammonium) decavanadate on glycemia from diabetic rats was determined. Diabetes was induced in rats by intravenous administration of streptozotocin, which destroys the β-pancreatic cells that produce insulin.
as §1, §2, §3
Chronic in vivo efficacy of B6V10 was evaluated in streptozotocin-induced diabetic rats and in db/db mice. Streptozotocin-induced (45 mg/kg) diabetic rats were subcutaneously treated with hexaquis(benzylammonium) decavanadate (2.5 μmol/kg) (B6V10, solid squares, FIG. 8A) or with decavanadate (2.5 μmol/kg) (V10, open circles, FIG. 8A) delivered subcutaneously by osmotic minipumps implanted in the dorsal region. Diabetic rats were also sham-operated (untreated, solid diamonds, FIG. 8A). […] These experiments were repeated using an oral administration protocol. Streptozotocin-induced (45 mg/kg) diabetic rats were orally treated with hexaquis(benzylammonium) decavanadate (5 μmol/kg from day 0 to day 7 and 10 μmol/kg/day from day 7 to day 17) (B6V10, solid squares, FIG. 8B) or received decavanadate (10 μmol/kg) (V10, open circles, FIG. 8B). […]

[3] = system: streptozotocin-induced diabetic rats; conditions: for effect on glycemia / circulating glucose, in words: 2.5 μmol/kg subcutaneous minipumps
Experimental: as §1, §2, §3
To this end, rats were made diabetic by the injection of a large dose of streptozotocin (100 mg/kg) that eliminates β-pancreatic insulin content. […] These streptozotocin-induced diabetic rats were subcutaneously treated with B6V10 (2.5 μmol/kg) (solid squares, FIG. 9A) delivered by osmotic minipumps or left untreated (solid circles, FIG. 9A). Sham-operated nondiabetic rats were also untreated (solid triangles, FIG. 9A).
The concentration of circulating glucose under these conditions was also assayed. After 28 days of treating diabetic rats with hexaquis(benzylammonium) decavanadate (2.5 μmol/kg) (wide striped bars, FIG. 9B), or with decavanadate (close striped bars, FIG. 9B) delivered by osmotic minipumps, plasma insulin and glucose were measured. Untreated diabetic (solid bars, FIG. 9B) or nondiabetic rats (open bars, FIG. 9B) were similarly assayed as controls.

[4] = streptozotocin 100 mg/kg, 2.5 μmol/kg minipumps, 28 days

Substance | glycemia [1] | effect on glycemia over the whole oral treatment, in words [1] | effect on glycemia over the whole oral treatment, in words ([1]; listed as sodium decavanadate) | effect on glycemia, in words [2] | effect on glycemia, in words ([2]; listed as sodium decavanadate) | effect on glycemia / circulating glucose, in words ([3]; streptozotocin 100 mg/kg) | time at which decrease of hyperglycemia was detected ([1]; oral 5 μmol/kg/day) | effect on hyperglycemia, in words ([1]; oral 5 μmol/kg/day for seven days) | effect of the dosage increase on glycemia, in words ([1]; oral 10 μmol/kg/day for an additional ten days after seven days at 5 μmol/kg/day) | time at which reduction of hyperglycemia was detected ([2]; 2.5 μmol/kg/day subcutaneous minipumps) | glucose transport in adipocytes isolated from treated rats ([2]; adipocytes isolated at fourteen days of treatment) | effect on glycemia, in words ([2]; listed as hexaquis(benzylammonium) decavanadate) | effect on body weight or organ weights ([3]; rat, in vivo) | plasma glucose after 28 days of treatment [3, 4] | plasma insulin after 28 days of treatment [3, 4]
sodium decavanadate [Example V10, reference compound] | approximately 450 mg/dl | did not alter glycemia | not affected substantially | did not alter glycemia | did not modify substantially its glycemia | did not show any change in circulating glucose | – | – | – | – | – | – | – | – | –
hexaquis(benzylammonium) decavanadate [Example B6V10] | approximately 250 mg/dl | significant correction of hyperglycemia | – | significant correction of hyperglycemia | – | reducing glycemia | after but two days of treatment | moderate decrease of hyperglycemia | additional decrease in glycemia | after only four days of treatment | increased glucose transport under basal conditions equivalent to that seen in the presence of insulin | rapid reduction of the hyperglycemia | did not affect body weight or organ weights | plasma glucose was reduced | without any observable change in the amount of insulin
